According to patent publication US10407388B2, “Thiourea derivatives as activators of RORα and pharmaceutical composition containing same” (SEOUL NATIONAL UNIVERSITY R & DB FOUNDATION, priority 2011, dated 2019):

Assays:
[1] = system: LXRα; assay: Expression of LXRα protein in liver of mice with high-fat diet-induced fatty liver, western blotting; type: in vivo; conditions: oral, 10 mg/kg/day or 30 mg/kg/day for 2 days; liver tissue; FIG. 11b
Procedure: (§1) 3 days after the diet was fed, the mice were fed the high-fat diet containing safflower oil while being orally administered JC1-40 and JC1-42, which had been diluted with 0.5% carboxymethyl cellulose, at a dose of 10 mg/kg/day or 30 mg/kg/day for 2 days. 5 days after the diet was fed, the mice were sacrificed to extract liver tissues therefrom, and the expression of proteins was analyzed by western blotting analysis. That is, after treatment, each liver tissue was homogenized in a lysis buffer containing 50 mM NaCl, 50 mM Tris pH 7.4, 5 mM EDTA, 1% NP-40, and a protease inhibitor, and then centrifuged to obtain a total cell lysate. 20 μg to 30 μg of proteins collected from the total cell lysate was subjected to 7% to 9% SDS-PAGE, and was transferred to a polyvinylidene difluoride membrane (Millipore, Bedford, Mass., USA). […] Immunoreactive proteins were detected with Amersham ECL western blotting detection reagents using an HRP-conjugated secondary antibody (Zymed Lab). Protein concentrations were quantified by BCA (Pierce) analysis, and the expression of α-tubulin was monitored as a control. […]

[2] = system: ACC; assay: Phosphorylation of ACC in liver of mice with high-fat diet-induced fatty liver, western blotting; type: in vivo; conditions: oral, 10 mg/kg/day or 30 mg/kg/day for 2 days; liver tissue; FIG. 11b
Procedure: as §1

[3] = system: white mice, common carotid artery damaged by balloon catheter; assay: Inner vascular proliferation after balloon dilatation; type: in vivo; conditions: oral, 5 mg/kg, 14 days after balloon dilatation; H&E staining; FIG. 15
Procedure: To verify the inhibition of angiostenosis by JC1-40, white mice were administered JC1-40 for […], followed by balloon dilatation and subsequent additional administration of JC1-40 for 14 days. An experimental group was orally administered JC1-40 at a dose of 5 mg/kg (in 0.5% carboxymethyl cellulose, 2 ml/kg) (n=5), and a control was orally administered 0.5% carboxymethlycellulose at a dose of […] (n=5). The balloon dilatation was performed as follows. The cervical portion of each with mouse was incised to expose a common carotid artery, and the internal branch was tied at a site where the common carotid artery branches into the external branch and the internal branch. The external branch was partially incised, and then ballooning was performed three times with a 2F Fogarty balloon catheter to damage blood vessels. Subsequently, the balloon catheter was removed, and the incision site was tied. After balloon dilatation, the white mice were administered the drug for 14 days and then sacrificed to cut the site in artery that included the damaged region. The obtained blood vessels of each of the JC1-40 experimental group and the control were sectioned, the inner vascular layer thereof was subjected to Hematoxylin and Eosin (H&E) staining, and then the effect of JC1-40 on the inhibition of inner vascular proliferation was examined, and the results thereof are illustrated in FIG. 15. […]

[4] = system: AMPK; assay: Phosphorylation of AMPK in liver of mice with high-fat diet-induced fatty liver, western blotting; type: in vivo; conditions: oral, 10 mg/kg/day or 30 mg/kg/day for 2 days; liver tissue; FIG. 11b
Procedure: as §1

[5] = system: alcoholic fatty liver mice model; assay: Alcoholic fatty liver mice model (Lieber-DeCarli liquid diet); type: in vivo, mice (C57BL/6); conditions: oral, 10 mg/kg body weight once a day for 2 weeks
Procedure: (§2) Eight-week-old black male laboratory mice (C57BL/6) were divided into: 1) control (n=8); 2) JC1-40-administered control (n=8); 3) alcohol group (n=12); and 4) JC1-40-administered alcohol group (n=12), and fed a Lieber-DeCarli liquid diet (Dyets Inc, Bethlehem, Pa., USA). The Lieber-DeCarli liquid diet in the form of powder was purchased, and then water was added thereto every morning to form a liquid-type feed such that 1 ml of the feed contained 1 kcal. The alcohol group was fed a gradually increasing amount of alcohol with an increment of 0.5% during a 2-week adaptation period, and then was fed a feed containing 5% alcohol for 5 weeks. The feed of the control included maltose dextrin instead of alcohol, and for pair-feeding, the feed included maltose dextrin in an amount providing the same calories as the calories that the amount of the feed fed to the mice of the alcohol group contained. During the 5-week ingestion of 5% alcohol, JC1-40 diluted with 0.5% carboxymethyl cellulose was orally administered once a day at a dose of 10 mg/kg body weight for 2 weeks prior to sacrificing the mice. After the 5-week alcohol feeding period was completed, the mice were fasted for 12 hours, and anesthetized to incise the abdomen, and blood and liver were removed from each mouse.

[6] = system: ACC; assay: Phosphorylation of ACC in HepG2 cells, western blotting; type: cell-based, human; conditions: 100 μM, 24 hours; FIGS. 7a and 7b
Procedure: HepG2 cells (1×10^6 cells/well) were seeded on a 60-dish, and cultured overnight in a DMEM containing 10% FBS. The HepG2 cells were maintained at 37° C. in a humidification thermostat containing 5% CO2 and 95% air. After culturing, the HepG2 cells were treated with 100 μM JC1-38 and JC1-40 (or 100 μM JC1-38 and JC1-42), 2 mM metfornin, and 2 mM AICIR for 24 hours. After treatment, the expression of RORα and phosphorylated ACC (pACC) proteins was analyzed by western blotting, and the expression of α-tubulin was monitored as a control. The results thereof are illustrated in FIGS. 7a and 7b.

[7] = system: high-fat diet-induced fatty liver mice model; assay: Blood biochemical analysis in high-fat diet-induced fatty liver mice model; type: in vivo; conditions: FIG. 13; for amount of blood triglycerides, which had been increased by the high-fat diet / amount of blood glucose / amount of total blood cholesterol: oral, 10 mg/kg/day or 30 mg/kg/day for 2 days; for amount of blood glucose / amount of total blood cholesterol: versus high-fat diet group
Procedure: 3 days after the diet was fed, the mice were fed the high-fat diet containing safflower oil while being orally administered JC1-40 and JC142, which had been diluted with 0.5% carboxymethyl cellulose, at a dose of 10 mg/kg/day or 30 mg/kg/day for 2 days. 5 days after the diet was fed, the mice were sacrificed to collect blood, and serum samples were collected therefrom.

[8] = system: MCP-1; assay: MCP-1 in alcoholic fatty liver mice model (ELISA, western blotting); type: in vivo, mice (C57BL/6); conditions: oral, 10 mg/kg body weight once a day for 2 weeks, alcohol group
Procedure: as §2

[9] = 30 mg/kg/day, compared to the high-fat diet group

SMILES | expression of LXRα protein, which had been increased by the high-fat diet [1] | phosphorylation of ACC [2] | proliferation of the inner vascular layer by balloon dilatation [3] | phosphorylation of AMPK [4] | GOT in plasma ([5]; alcohol group, FIG. 16a) | GPT in plasma ([5]; alcohol group, FIG. 16a) | level of blood triglycerides ([5]; alcohol group, FIG. 16b) | weight percentage of liver in body ([5]; alcohol group, FIG. 16d) | accumulation of alcohol-induced lipid vesicles (Hematoxyllin & Eosin) ([5]; liver tissue) | phosphorylation of ACC [6] | GOP [7, 9] | GPT [7, 9] | amount of high-density lipoproteins [7, 9] | amount of blood triglycerides, which had been increased by the high-fat diet [7] | amount of blood glucose [7] | amount of total blood cholesterol [7] | level of cytokine MCP-1 (ELISA) ([8]; FIG. 16c) | expression of the MCP-1 protein (western blotting) ([8]; FIG. 16e)
CNC(=S)NCc1ccc(OCc2ccccc2)cc1 [Compound 40, 1-(4-benzyloxy-benzyl)-3-methyl-thiourea] | decreased | increased | inhibited | increased | decreases in GPT and GOT to levels of the control | decreases in GPT and GOT to levels of the control | significantly decreased | decreased with high significance | significantly reduced | increased | decreased | decreased | increased | decreased | not different from those in the high-fat diet group | not different from those in the high-fat diet group | significantly decreased | decreased to the level of the control
CNC(=S)NCc1ccc(Oc2ccccc2)cc1 [Compound 42, 1-(4-phenoxy-benzyl)-3-methyl-thiourea] | decreased | increased |  | increased |  |  |  |  |  | increased |  |  | increased | decreased | not different from those in the high-fat diet group | not different from those in the high-fat diet group |  | 
